The subject of experiment [1] is β-glucosidase from E. coli. Kind of experiment: β-glucosidase enzyme inhibition assay (p-nitrophenyl-β-D-glucopyranoside substrate). In kind it is biochemical. The conditions noted are these: for IC50: E. coli enzyme, pH 6.8, 37 °C, read at 405 nm, read-out: IC50 ± SEM against β-glucosidase; for % inhibition ± SD against β-glucosidase: test concentration not given. Here is the method:
β-glucosidase inhibition activity of the synthesized compounds, with an enzyme concentration of […] were used for the inhibition assay. The IC50 values were determined at different concentrations using Graph Pad Prism v5.0.
(§1) All of the reported results are the mean of three independent experiments, and those compounds showing > 50% inhibition were further analyzed for their IC50 values at different dilutions. The IC50 values were calculated by using nonlinear regression analysis and GraphPad Prism version 8. SEM = standard error mean.
The inhibition analysis of β-glucosidase was carried out, where p-nitrophenyl-β-D-glucopyranoside was used as a substrate, and the β-glucosidase from E. coli (purchased from Sigma Aldrich) was dissolved in buffer solution (pH 6.8). A total volume of 60 µL of sodium phosphate buffer, 10 µL of each test sample (dissolved in 1% DMSO), and 10 µL of enzyme (1.5 U/mL) were mixed together and incubated for 5 min at 37 °C, followed by the addition of 10 µL of p-nitrophenyl-β-D-glucopyranoside (dissolved in a buffer solution). Incubation of the mixture was carried out for 30 min, and 10 µL of 0.2 M sodium carbonate solution was subsequently added. DMSO (1%) was used as a negative control. The p-nitrophenol produced from p-nitrophenyl-β-D-glucopyranoside was measured at a λmax of 405 nm in order to evaluate the activity of the test compounds against β-glucosidase. The %inhibition of β-glucosidase was calculated by the following formula: %Inhibition=(100−sample/control×100
Graph Pad Prism v5.00 was used to find out the IC50 (concentration at which 50% of enzymatic activity was inhibited by the test sample) value from a second-order regression analysis.

Another experiment concerns HepG2 cells. Briefly: MTT cell viability assay on HepG2 hepatic cancer cells. Type of experiment: cell-based, human. Conditions: for viability at 200 µg / IC50: Homo sapiens, HepG2, 48 h, MTT, 48 h; for viability at 200 µg: concentration of 200 µg, read-out: % viability ± SD against HepG2 cancer cell lines; for IC50: read-out: IC50 ± SEM against HepG2 cancer cell line. Here is the method:
as §1
The human liver cells were cultivated in Dulbecco’s modified Eagle medium (DMEM), in which 100 U/mL penicillin, 10% fetal bovine, and 100 µg/mL streptomycin were added and kept at 37 °C in a […] carbon dioxide-induced humidified environment. The human liver cells prepared as per the above procedure were then treated with synthesized compounds diluted to a 0.05% DMSO concentration.
By using an MTT assay, the %viability of cancer cells was evaluated. According to the standard procedure, the HepG2 cells were treated with various dosages of synthesized compounds for 48 h each. The cells were then incubated for 4 h at 37 °C with 10 μMTT reagent (5 mg/mL). Next, 150 μL of DMSO was added to dissolve the formazan crystals. The λmax was recorded at […] in a microplate reader (Thermos Scientific, Waltham, MA, USA).

Consider 13 compounds from paper PMC10538174, “Bioactivity-Guided Synthesis: In Silico and In Vitro Studies of β-Glucosidase Inhibitors to Cope with Hepatic Cytotoxicity” (Molecules, 2023).

Regarding `C[C@H]1O[C@H](O[C@H]2[C@H](O)[C@@H](O)[C@@H](O[C@H]3[C@H](O)[C@@H](O)C(O)O[C@@H]3CO)O[C@@H]2CO)[C@H](O)[C@@H](O)[C@@H]1N[C@H]1C=C(CO)[C@@H](O)[C@H](O)[C@H]1O` (stereo partly shown) [Acarbose, reference compound], the IC50 in experiment [1] is 2.15 µM.
Regarding `O=C(O)c1ccc(NC(=O)c2ccccc2C(=O)O)cc1` [Compound 1c], in experiment [1], the IC50 is 1.26 µM and the “% inhibition ± SD against β-glucosidase” value is 76 ± 1.41%. In addition, in experiment [1] (versus acarbose), the “β-glucosidase inhibition better than the standard” value was determined as 40%. Besides, in the experiment on HepG2 cells, the viability at 200 µg stood at 35.6%.
For `O=C(O)c1ccccc1C(=O)Nc1ccc([N+](=O)[O-])cc1` [Compound 2c], in experiment [1], the IC50 stood at 2.17 ± 0.11 µM and the “% inhibition ± SD against β-glucosidase” value was 68 ± 1.41%. Besides, the viability at 200 µg in the experiment on HepG2 cells was found to be 29.4%.
`O=C(O)c1ccccc1C(=O)Nc1ccc(Cl)c(C(F)(F)F)c1` [Compound 3c]: in experiment [1], the IC50 was found to be 3 ± 0.17 µM and the “% inhibition ± SD against β-glucosidase” value is on record as 70 ± 2.82%. The viability at 200 µg in the experiment with HepG2 cells stood at 12.8%. Also, in the experiment on HepG2 cells (versus thalidomide), the “more anti-tumor activity against the HepG2 cell line than the known drug” value is on record as “greater than 9%”.
On to `O=C(O)c1ccccc1C(=O)Nc1ccc(Cl)cc1` [Compound 4c], for which the “% inhibition ± SD against β-glucosidase” value in experiment [1] was 42 ± 1.42%. For the same compound, the viability at 200 µg in the experiment with HepG2 cells was found to be 26.9%.
For the compound `O=C(O)c1ccccc1C(=O)N1CCN(CCN2C(=O)c3ccccc3C2=O)CC1` [Compound 5c], in experiment [1], the half-maximal inhibitory concentration (IC50) was determined as 1.26 ± 0.11 µM and the “% inhibition ± SD against β-glucosidase” value amounted to 71 ± 1.2%. In addition, the viability at 200 µg in the experiment with HepG2 cells came out at 42.2 ± 2.2%.
On to `O=C1c2ccccc2C(=O)N1Cc1ccccc1` [Compound 6c], for which the “% inhibition ± SD against β-glucosidase” value in experiment [1] came out at 45.0 ± 1.41%.
As for `Cc1ccc(N2C(=O)c3ccccc3C2=O)cc1` [Compound 7c], in experiment [1], the IC50 amounted to 6.98 ± 0.31 µM and the “% inhibition ± SD against β-glucosidase” value is 63.5 ± 0.71%. Moreover, in the experiment with HepG2 cells, the viability at 200 µg was found to be 21.4 ± 3.4% and the IC50 was 12.8 ± 2.33 µM.
With `O=C(O)CCCCCN1C(=O)c2ccccc2C1=O` [Compound 8c], in experiment [1], the IC50 was found to be 4.78 ± 0.27 µM and the “% inhibition ± SD against β-glucosidase” value came to 70.5 ± 2.12%. Also, the viability at 200 µg with HepG2 cells turned out to be 24.8%.
On to `O=C(O)c1ccc(N2C(=O)c3ccccc3C2=O)cc1` [Compound 9c], for which, in experiment [1], the “% inhibition ± SD against β-glucosidase” value is 61.5 ±0.12%.
Regarding `O=C1c2ccccc2C(=O)N1c1ccccc1F` [Compound 10c], in experiment [1], the “% inhibition ± SD against β-glucosidase” value turned out to be 50.5 ± 2.31%. In the experiment with HepG2 cells, the viability at 200 µg was 20.5 ± 4.2% and the IC50 amounted to 48 ± 2.18 µM.
In the case of `Cc1c(N2C(=O)c3ccccc3C2=O)c(=O)n(-c2ccccc2)n1C` [Compound 11c], in experiment [1], the IC50 stood at 9.57 ± 0.22 µM and the “% inhibition ± SD against β-glucosidase” value is reported as 56.5 ± 2.45%. Besides, in the experiment with HepG2 cells, the viability at 200 µg came to 40.8 ± 2.5%.
Consider `O=C1c2ccccc2C(=O)N1c1ccccc1` [Compound 12c], for which the “% inhibition ± SD against β-glucosidase” value in experiment [1] was determined as 45.2 ±0.4%. Also, in the experiment on HepG2 cells, the viability at 200 µg turned out to be 27.2%.
